# Measured values: publication PMC6379368, “Extracellular and intracellular small-molecule galectin-3 inhibitors” (Scientific Reports, 2019)
# Tests used:
# PanC-1 cells = experiment: MTT assay, PanC-1 pancreatic cancer cells; assay type: cell-based; conditions: PanC-1, 72 hours
# Protocol: The MTT (3-[4,5-dimethylthiazol-2-yl]−2,5-diphenyltetrazolium bromide) assays were performed as previously described. In brief, cells were seeded in 96-well plates (6000 cells/well for MCF-7 and HCC1937 and 5000 cells for JIMT-1 in 180 μl fully-supplemented medium as described under Cell culture). The cells were incubated for 24 hours before addition of galectin-3 inhibitors. The inhibitors were diluted in PBS from their respective stock solution in DMSO (see Galectin-3 inhibitors) and used at final concentrations ranging from 0.04 to 40 μM. DMSO was adjusted to make the final DMSO concentration 0.2% for all inhibitor concentrations, including the control sample (no inhibitor). After 72 hours of treatment, 20 μl of 5 mg/ml MTT solution (in PBS) was added to each well and incubation continued for 1 hour at 37 °C. […] Absorbance was monitored at 540 nm using a Labsystems iEMS Reader MF (Labsystems Oy, Helsinki, Finland) and the software DeltaSoft II v.4.14 (Biometallics Inc., Princeton, NJ, USA). […]
# Fluorescence anisotropy assay
# The affinity between inhibitor 1 and the carbohydrate recognition domain (CRD) of galectin-8C and between inhibitor 3 and the CRD of galectin-2, -4N, -4C, 8C, and -9C was determined using the fluorescence anisotropy assay described in the main article. […]
# MCF-7 cells = experiment: MTT cell viability assay, MCF-7; assay type: cell-based; conditions: MCF-7, 72 hours, 0.04–40 µM for 1 and 2, 0.04–20 µM for 3
# Protocol: The MTT (3-[4,5-dimethylthiazol-2-yl]−2,5-diphenyltetrazolium bromide) assays were performed as previously described. […] The cells were incubated for 24 hours before addition of galectin-3 inhibitors. The inhibitors were diluted in PBS from their respective stock solution in DMSO (see Galectin-3 inhibitors) and used at final concentrations ranging from 0.04 to 40 μM. DMSO was adjusted to make the final DMSO concentration 0.2% for all inhibitor concentrations, including the control sample (no inhibitor). After 72 hours of treatment, 20 μl of 5 mg/ml MTT solution (in PBS) was added to each well and incubation continued for 1 hour at 37 °C. Thereafter, the MTT containing medium was removed and 100 μl of DMSO was added per well and the plates swirled gently for 10 minutes to dissolve the cells and the purple formazan product precipitate. Absorbance was monitored at 540 nm using a Labsystems iEMS Reader MF (Labsystems Oy, Helsinki, Finland) and the software DeltaSoft II v.4.14 (Biometallics Inc., Princeton, NJ, USA).
structure (smiles),measurement,setting,value
OC[C@H]1O[C@@H](S[C@@H]2O[C@H](CO)[C@H](O)[C@H](n3cc(-c4cccc(F)c4)nn3)[C@H]2O)[C@H](O)[C@@H](n2cc(-c3cccc(F)c3)nn2)[C@H]1O [compound 1],toxicity (MTT),PanC-1 cells,low toxicity
same,cell viability (MTT),MCF-7 cells,no apparent change in cell viability
